Molecules are shown by their SMILES.

One assay deals with T1, BA/F3-FLT3-ITD + D835Y (Homo sapiens, UniProt P36888, D835Y, cells depend on it, form not given).
T1 sequence (P36888 with tags, fused parts or gaps INS600HVDFREYEYD/D835Y): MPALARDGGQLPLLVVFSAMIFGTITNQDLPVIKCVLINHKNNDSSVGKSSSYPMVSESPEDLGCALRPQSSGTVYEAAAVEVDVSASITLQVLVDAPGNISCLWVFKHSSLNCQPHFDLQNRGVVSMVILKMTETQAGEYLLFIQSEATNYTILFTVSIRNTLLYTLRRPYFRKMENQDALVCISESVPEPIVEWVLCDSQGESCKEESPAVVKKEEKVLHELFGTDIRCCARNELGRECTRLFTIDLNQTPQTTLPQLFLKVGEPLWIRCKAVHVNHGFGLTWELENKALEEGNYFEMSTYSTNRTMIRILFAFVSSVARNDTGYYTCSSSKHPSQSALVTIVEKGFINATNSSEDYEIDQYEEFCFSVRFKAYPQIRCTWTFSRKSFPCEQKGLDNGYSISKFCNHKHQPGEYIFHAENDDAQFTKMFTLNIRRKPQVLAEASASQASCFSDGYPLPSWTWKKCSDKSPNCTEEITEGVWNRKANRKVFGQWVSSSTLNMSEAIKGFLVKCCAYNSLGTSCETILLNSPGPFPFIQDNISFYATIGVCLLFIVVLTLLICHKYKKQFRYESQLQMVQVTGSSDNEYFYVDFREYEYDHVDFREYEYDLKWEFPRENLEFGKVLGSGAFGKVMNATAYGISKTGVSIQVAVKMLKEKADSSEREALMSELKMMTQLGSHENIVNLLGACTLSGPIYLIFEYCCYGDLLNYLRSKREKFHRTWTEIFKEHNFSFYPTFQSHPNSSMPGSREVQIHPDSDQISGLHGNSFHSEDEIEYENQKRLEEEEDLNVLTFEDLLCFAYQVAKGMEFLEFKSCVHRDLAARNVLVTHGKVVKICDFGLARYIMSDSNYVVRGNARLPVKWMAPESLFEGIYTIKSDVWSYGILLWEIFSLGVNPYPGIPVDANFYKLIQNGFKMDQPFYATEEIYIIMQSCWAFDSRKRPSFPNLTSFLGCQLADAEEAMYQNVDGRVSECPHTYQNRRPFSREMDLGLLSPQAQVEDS
Kind of assay: Engineered BA/F3 cell growth assay, FLT3 ITD/D835Y. In kind it is cell-based, murine. Particulars: 3 d growth. The gist of the method:
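IC50 derived from CellTiter-Glo ATP luminescence after 3 days at 37 °C, 5% CO2, over eight 1:3 dilutions from 1 μM (0.2% DMSO final). Cells: IL-3-independent murine Ba/F3 expressing full-length FLT3 ITD/D835Y, 1×10^4 per well.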

The subject of assay [1] is MOLM-14 D835Y (endogenous FLT3 ITD and transfected FLT3 D835Y). Kind of assay: MOLM-14 D835Y cell proliferation assay (CellTiter-Glo). Particulars: Homo sapiens, MOLM-14, 72 h; 3 d growth, GMean. In kind it is cell-based. The gist of the method: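 Three-day proliferation at 37 °C/5% CO2 of FLT3-ITD MOLM-14 lines with D835Y or F691L mutation, seeded 1×10^4 per well. Compounds at eight points, top 1 μM final, 0.2% DMSO. ATP luminescence (CellTiter-Glo) gives IC50.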

As for `Cn1cc(Nc2ncc(-c3ccc(CC(=O)Nc4cnc(F)c(C(C)(F)F)c4)cc3)cn2)cn1` [Compound P-0104, N-[5-(1,1-difluoroethyl)-6-fluoro-3-pyridyl]-2-[4-[2-[(1-methylpyrazol-4-yl)amino]pyrimidin-5-yl]phenyl]acetamide], the GI50 on BA/F3-FLT3-ITD + D835Y was 0.0001 to 10 µM. The IC50 in assay [1] lay in the range of 0.0001 to 10 µM.
Consider `Cn1cc(Nc2ncc(-c3ccc(CC(=O)Nc4cnnc(Cl)c4)cc3)cn2)cn1` [Compound P-0151, N-(6-chloropyridazin-4-yl)-2-[4-[2-[(1-methylpyrazol-4-yl)amino]pyrimidin-5-yl]phenyl]acetamide], for which, on BA/F3-FLT3-ITD + D835Y, the GI50 fell in the range of 0.0001 to 10 µM. In addition, in assay [1], the IC50 is 0.0001 to 10 µM.
Consider `Cn1cc(Nc2ncc(-c3ccc(CC(=O)Nc4ccc(C(C)(C)C)nc4)cc3)cn2)cn1` [Compound P-0143, N-(6-tert-butyl-3-pyridyl)-2-[4-[2-[(1-methylpyrazol-4-yl)amino]pyrimidin-5-yl]phenyl]acetamide], for which, at BA/F3-FLT3-ITD + D835Y, the GI50 fell in the range of 0.0001 to 10 µM. Moreover, in assay [1], the IC50 was 0.0001 to 10 µM.
On to `Cn1cnc(Nc2ncc(-c3ccc(CC(=O)Nc4cncc(C(C)(F)F)c4)c(F)c3)cn2)c1` [Compound P-0103, N-[5-(1,1-difluoroethyl)-3-pyridyl]-2-[2-fluoro-4-[2-[(1-methylimidazol-4-yl)amino]pyrimidin-5-yl]phenyl]acetamide], for which, at BA/F3-FLT3-ITD + D835Y, the GI50 fell in the range of 0.0001 to 10 µM. In addition, the IC50 in assay [1] fell in the range of 0.0001 to 10 µM.
Turning to `Cn1cnc(Nc2ncc(-c3ccc(CC(=O)Nc4cc(C(F)(F)F)ccn4)c(F)c3)cn2)c1` [Compound P-0096, 2-[2-fluoro-4-[2-[(1-methylimidazol-4-yl)amino]pyrimidin-5-yl]phenyl]-N-[4-(trifluoromethyl)-2-pyridyl]acetamide], the GI50 on BA/F3-FLT3-ITD + D835Y lay within 0.0001 to 10 µM. In assay [1], this compound registered an IC50 of 0.0001 to 10 µM.
On to `Cn1cc(Nc2ncc(-c3ccc(CC(=O)Nc4ccnc(C5CC5)c4)c(F)c3)cn2)cn1` [Compound P-0098, N-(2-cyclopropyl-4-pyridyl)-2-[2-fluoro-4-[2-[(1-methylpyrazol-4-yl)amino]pyrimidin-5-yl]phenyl]acetamide], for which, on BA/F3-FLT3-ITD + D835Y, the GI50 lay in the range of 0.0001 to 10 µM. This compound had an IC50 in assay [1] of 0.0001 to 10 µM.
Regarding `Cn1cc(Nc2ncc(-c3ccc(CC(=O)Nc4ccnc(C(F)(F)F)n4)cc3)cn2)cn1` [Compound P-0137, 2-[4-[2-[(1-methylpyrazol-4-yl)amino]pyrimidin-5-yl]phenyl]-N-[2-(trifluoromethyl)pyrimidin-4-yl]acetamide], the GI50 at BA/F3-FLT3-ITD + D835Y is 0.0001 to 10 µM. In assay [1], this compound displayed an IC50 of 0.0001 to 10 µM.
As to `N#Cc1cc(-c2cc3cc(-c4ccc(CC(=O)Nc5cc(C(F)(F)F)ccn5)cc4F)cnc3[nH]2)ccn1` [Compound P-0194, 2-[4-[2-(2-cyano-4-pyridyl)-1H-pyrrolo[2,3-b]pyridin-5-yl]-3-fluoro-phenyl]-N-[4-(trifluoromethyl)-2-pyridyl]acetamide], the GI50 at BA/F3-FLT3-ITD + D835Y fell in the range of 0.0001 to 10 µM. Moreover, the IC50 in assay [1] lay in the range of 0.0001 to 10 µM.
Regarding `Cn1cc(Nc2ncc(-c3ccc(CC(=O)Nc4ccc(S(C)(=O)=O)cc4)cc3)cn2)cn1` [Compound P-0156, 2-[4-[2-[(1-methylpyrazol-4-yl)amino]pyrimidin-5-yl]phenyl]-N-(4-methylsulfonylphenyl)acetamide], at BA/F3-FLT3-ITD + D835Y, the GI50 is 0.0001 to 10 µM. For the same compound, the IC50 in assay [1] was 0.0001 to 10 µM.
Regarding `Cc1n[nH]c2ncc(-c3ccc(CC(=O)Nc4cncc(C(F)(F)F)c4)cc3F)cc12` [Compound P-0177, 2-[3-fluoro-4-(3-methyl-1H-pyrazolo[3,4-b]pyridin-5-yl)phenyl]-N-[5-(trifluoromethyl)-3-pyridyl]acetamide], the GI50 at BA/F3-FLT3-ITD + D835Y was 0.0001 to 10 µM. The compound also had an IC50 in assay [1] of 0.0001 to 10 µM.
`Cn1cc(Nc2ncc(-c3ccc(CC(=O)Nc4ccc(C(F)(F)F)cn4)cc3)cn2)cn1` [Compound P-0109, 2-[4-[2-[(1-methylpyrazol-4-yl)amino]pyrimidin-5-yl]phenyl]-N-[5-(trifluoromethyl)-2-pyridyl]acetamide]: at BA/F3-FLT3-ITD + D835Y, the GI50 was in the range of 0.0001 to 10 µM. Besides, the IC50 in assay [1] lay within 0.0001 to 10 µM.
On to `Cn1cc(Nc2ncc(-c3ccc(CC(=O)Nc4cccc(C(C)(C)C#N)c4)cc3)cn2)cn1` [Compound P-0158, N-[3-(1-cyano-1-methyl-ethyl)phenyl]-2-[4-[2-[(1-methylpyrazol-4-yl)amino]pyrimidin-5-yl]phenyl]acetamide], for which the GI50 at BA/F3-FLT3-ITD + D835Y lay in the range of 0.0001 to 10 µM. Moreover, the IC50 in assay [1] was 0.0001 to 10 µM.
For the compound `N#Cc1ccc(-c2cc3cc(-c4ccc(CC(=O)Nc5cncc(C(F)(F)F)c5)cc4F)cnc3[nH]2)cn1` [Compound P-0195, 2-[4-[2-(6-cyano-3-pyridyl)-1H-pyrrolo[2,3-b]pyridin-5-yl]-3-fluoro-phenyl]-N-[5-(trifluoromethyl)-3-pyridyl]acetamide], the GI50 on BA/F3-FLT3-ITD + D835Y was in the range of 0.0001 to 10 µM. The compound further gave an IC50 in assay [1] of 0.0001 to 10 µM.
Consider `CCn1cc(Nc2ncc(-c3ccc(CC(=O)Nc4cncc(C(F)(F)F)c4)cc3)cn2)cn1` [Compound P-0166, 2-[4-[2-[(1-ethylpyrazol-4-yl)amino]pyrimidin-5-yl]phenyl]-N-[5-(trifluoromethyl)-3-pyridyl]acetamide], for which the GI50 on BA/F3-FLT3-ITD + D835Y lay in the range of 0.0001 to 10 µM. The IC50 in assay [1] lay within 0.0001 to 10 µM.
As to `Cn1cc(Nc2ncc(-c3ccc(CC(=O)Nc4ccnc(C5CC5)c4)cc3)cn2)cn1` [Compound P-0097, N-(2-cyclopropyl-4-pyridyl)-2-[4-[2-[(1-methylpyrazol-4-yl)amino]pyrimidin-5-yl]phenyl]acetamide], the GI50 on BA/F3-FLT3-ITD + D835Y was 0.0001 to 10 µM. The IC50 in assay [1] was in the range of 0.0001 to 10 µM.
Turning to `Cn1cc(Nc2ncc(-c3ccc(CC(=O)Nc4cncc(C(C)(F)F)c4)cc3)cn2)cn1` [Compound P-0144, N-[5-(1,1-difluoroethyl)-3-pyridyl]-2-[4-[2-[(1-methylpyrazol-4-yl)amino]pyrimidin-5-yl]phenyl]acetamide], the GI50 on BA/F3-FLT3-ITD + D835Y fell in the range of 0.0001 to 10 µM. The IC50 in assay [1] was 0.0001 to 10 µM.
On to `Cn1cc(Nc2ncc(-c3ccc(CC(=O)Nc4ccc(C(F)(F)F)c(F)c4)cc3)cn2)cn1` [Compound P-0142, N-[3-fluoro-4-(trifluoromethyl)phenyl]-2-[4-[2-[(1-methylpyrazol-4-yl)amino]pyrimidin-5-yl]phenyl]acetamide], for which the GI50 on BA/F3-FLT3-ITD + D835Y lay in the range of 0.0001 to 10 µM. Also, the IC50 in assay [1] was in the range of 0.0001 to 10 µM.
Regarding `CCc1cncc(NC(=O)Cc2ccc(-c3cnc(Nc4cnn(C)c4)nc3)cc2F)c1` [Compound P-0111, N-(5-ethyl-3-pyridyl)-2-[2-fluoro-4-[2-[(1-methylpyrazol-4-yl)amino]pyrimidin-5-yl]phenyl]acetamide], the GI50 on BA/F3-FLT3-ITD + D835Y was 0.0001 to 10 µM. Also, the IC50 in assay [1] lay in the range of 0.0001 to 10 µM.
`CCn1cc(Nc2ncc(-c3ccc(CC(=O)Nc4cnc(Cl)c(C(F)(F)F)c4)cc3)cn2)cn1` [Compound P-0165, N-[6-chloro-5-(trifluoromethyl)-3-pyridyl]-2-[4-[2-[(1-ethylpyrazol-4-yl)amino]pyrimidin-5-yl]phenyl]acetamide]: the GI50 on BA/F3-FLT3-ITD + D835Y lay within 0.0001 to 10 µM. In assay [1], this compound yielded an IC50 of 0.0001 to 10 µM.
Consider `Cn1cc(Nc2ncc(-c3ccc(CC(=O)Nc4cnc(F)c(C(C)(F)F)c4)c(F)c3)cn2)cn1` [Compound P-0105, N-[5-(1,1-difluoroethyl)-6-fluoro-3-pyridyl]-2-[2-fluoro-4-[2-[(1-methylpyrazol-4-yl)amino]pyrimidin-5-yl]phenyl]acetamide], for which the GI50 on BA/F3-FLT3-ITD + D835Y lay within 0.0001 to 10 µM. The compound further displayed an IC50 in assay [1] of 0.0001 to 10 µM.
`Cn1cc(Nc2ncc(-c3ccc(CC(=O)Nc4ccc(C(F)(F)F)nc4)c(F)c3)cn2)cn1` [Compound P-0110, 2-[2-fluoro-4-[2-[(1-methylpyrazol-4-yl)amino]pyrimidin-5-yl]phenyl]-N-[6-(trifluoromethyl)-3-pyridyl]acetamide]: the GI50 on BA/F3-FLT3-ITD + D835Y fell in the range of 0.0001 to 10 µM. The half-maximal inhibitory concentration (IC50) in assay [1] was 0.0001 to 10 µM.
On to `Cn1cnc(Nc2ncc(-c3ccc(CC(=O)Nc4cnc(F)c(C(C)(F)F)c4)cc3)cn2)c1` [Compound P-0168, N-[5-(1,1-difluoroethyl)-6-fluoro-3-pyridyl]-2-[4-[2-[(1-methylimidazol-4-yl)amino]pyrimidin-5-yl]phenyl]acetamide], for which, at BA/F3-FLT3-ITD + D835Y, the GI50 was 0.0001 to 10 µM. Besides, the IC50 in assay [1] is 0.0001 to 10 µM.
`COc1cncc(NC(=O)Cc2ccc(-c3cnc(Nc4cnn(C)c4)nc3)cc2)c1` [Compound P-0133, N-(5-methoxy-3-pyridyl)-2-[4-[2-[(1-methylpyrazol-4-yl)amino]pyrimidin-5-yl]phenyl]acetamide]: the GI50 on BA/F3-FLT3-ITD + D835Y is 0.0001 to 10 µM. The same compound yielded an IC50 in assay [1] of 0.0001 to 10 µM.

Values taken from US10160747B2, “Compounds and methods for kinase modulation, and indications therefor” (Plexxikon Inc., priority 2016, dated 2018).
